Test results taken from US4308273A, “1,6-Naphthyridine derivatives, and antidinic and cerebral circulation improver containing such derivatives” (Nippon Kayaku Kabushiki Kaisha, priority 1978, dated 1981).
Where two headings read alike, the source gives them in different places.

What was measured:
[1] = Inhibition of spontaneous nystagmus produced by unilateral destruction of the labyrinth (anti-vertigo action); assay type: in vivo; settings: cats; for inhibition at 12 mg/kg / inhibition at 6 mg/kg: Felis catus, iv, read-out: Effect of compounds on the nystagmus expressed as inhibitory percentage
Experimental: (1) It is well known that vertigo resulting from the disturbance of the peripheral labyrinth is accompanied by nystagmus. So, we acutely produced the spontaneous nystagmus by unilateral destruction of the labyrinth in cats and used it as an experimental model of vertigo. a pair of Ag--AgCl cup electrodes was placed laterally to both orbits and an indifferent electrode on the forehead. The nystagmus was recorded through an amplifier. The inhibitory effect of the compounds on the nystagmus was expressed by [formula] where A is the frequency of the nystagmus in ten seconds before administration of the compounds and B is the frequency of the nystagmus at the maximum inhibitory point after administration. The duration of the effect was also measured. Compounds dissolved in saline were injected into the femoral vein. Betahistine and diphenidol were used as standard drugs.
A: Doses of compounds injected intraveneously.
B: Effect of compounds on the nystagmus expressed as inhibitory
C: Duration of the effect of compounds

[2] = Acute toxicity (LD50) by intraperitoneal injection; settings: mouse, in vivo, ip
Experimental: LD50 values of the compounds by intraperitoneal injection in mice were determined.

[3] = Effects of intravenous injection on mean arterial pressure, heart rate and vertebral arterial flow in anesthetized dogs; settings: for change in vivo at 1 mg/kg: Canis lupus familiaris, iv, read-out: Percent increase in vertebral arterial flow when injected intravenously; for Changes in heart rate when injected intravenously / Changes in systemic blood pressure when injected intravenously: anesthetized dogs, 1 mg/kg intravenously
Experimental: (§1) Pressure in the carotid artery was measured by a pressure transducer and mean arterial pressure was obtained by electrical integration. Heart rate was obtained by a cardiotachometer, triggered by a signal from the pressure pulse. The vertebral arterial flow was measured by fitting an electromagnetic flow transducer. The action on systemic mean arterial pressure, heart rate and vertebral arterial flow were represented by Δ mmHg, Δ beats/min and percent increase.

[4] = Cerebral vasodilating action: vertebral arterial flow, intra-arterial injection; assay type: in vivo; settings: Canis lupus familiaris; dogs, 1 mg intraarterially; read-out: Percent increase in vertebral arterial flow when injected intraarterially
Experimental: A: Percent increase in vertebral arterial flow when injected
intraarterially (1 mg) to dogs.
(1) For the experimental evaluation of cerebral vasodilating action, the canine vertebral arterial preparation was used. The carotid arterial blood was led to the vertebral artery by a short extracorporeal loop. The vertebral arterial flow was measured by an electromagnetic flow transducer inserted in the circuit. The action of the compounds on the vertebral arterial flow was expressed by percent increase when 1 mg of each compound was injected intra-arterially.

[5] = Effect on the hexobarbital-induced sleeping time; settings: male mice, 50 mg/kg subcutaneously, 15 min prior to sodium hexobarbital i.p.
Experimental: Groups consisted of 10 male-mice were administered the compounds or saline subcutaneously 15 min. prior to an intraperitoneal injection of sodium hexobarbital. Sleeping time for each animal in a group was measured. The averaged value of sleeping time in each group was calculated. The action of the sleeping time was expressed by the percentage of the sleeping time in the compound-treated groups to that in the saline-treated group.
D: Sleeping time of the compound (50 mg/kg, subcutaneously)treated groups
expressd as percentage to that of the control group.

[6] = dog, in vivo, iv, 1 mg/kg
Experimental: as §1

[7] = 12 mg/kg injected intravenously
[8] = male mice, intraperitoneal injection (Table 3)
[9] = mice, intraperitoneal injection (Table 4)

| Compound | inhibition at 12 mg/kg [1, 7] [%] | Duration of the effect of compounds (nystagmus) [1, 7] [min] | LD50 [2, 8] [mg/kg] | change in vivo at 1 mg/kg [3] [%] | Changes in heart rate when injected intravenously [3] | Changes in systemic blood pressure when injected intravenously [3] | change in vivo at 1 mg [4] [%] | LD50 [2, 9] [mg/kg] | inhibition at 6 mg/kg ([1]; 6 mg/kg injected intravenously) [%] | Duration of the effect of compounds (nystagmus) ([1]; 6 mg/kg injected intravenously) [min] | Sleeping time of the compound treated groups expressed as percentage to that of the control group [5] [%] | Changes in heart rate when injected intravenously [6] | Changes in systemic blood pressure when injected intravenously [6] |
| --- | --- | --- | --- | --- | --- | --- | --- | --- | --- | --- | --- | --- | --- |
| CCCCCN1CCc2ncccc2C1 [Compound 6, 5,6,7,8-tetrahydro-6-n-amyl-1,6-naphthyridine] | 86 | 10 | 165 |  |  |  |  |  |  |  |  |  |  |
| CC(C)CCN1CCc2ncccc2C1 [Compound 7] | 85 | 6 | 219 |  |  |  |  |  |  |  |  |  |  |
| CCCCCCN1CCc2ncccc2C1 [Compound 8] | 88 | 10 | 194 | 20.1 | +8 Δ beats/min | -18.5 Δ mmHg | 67 |  |  |  |  |  |  |
| CCCCCCCN1CCc2ncccc2C1 [Compound 9] | 79 | 10 | 208 | 15.5 | +8 Δ beats/min | -20.0 Δ mmHg | 78 |  |  |  |  |  |  |
| CCCCCCCCCCN1CCc2ncccc2C1 [Compound 11] |  |  |  | 25 | +8 Δ beats/min | -5.0 Δ mmHg | 99 | 156 |  |  |  |  |  |
| C=CCN1CCc2ncccc2C1 [Compound 12, 5,6,7,8-tetrahydro-6-allyl-1,6-naphtyridine] | 98 | 50 | 208 |  |  |  |  |  | 90 | 40 | 132.5 |  |  |
| C=CCCN1CCc2ncccc2C1 [Compound 14, 5,6,7,8-tetrahydro-6-(3-butenyl)-1,6-naphthyridine] | 77 | 28 | 239 |  |  |  |  |  |  |  |  |  |  |
| CCCCCC=CCN1CCc2ncccc2C1 [Compound 19] | 65 | 25 | 304 |  |  |  |  |  |  |  |  |  |  |
| CC(C)=CCC/C(C)=C/CN1CCc2ncccc2C1 [Compound 20] |  |  |  | 20 | +12 Δ beats/min | -11.7 Δ mmHg | 69 | 292 |  |  |  |  |  |
| c1cnc2c(c1)CN(CC1CCC1)CC2 [Compound 23] | 83 | 8 | 214 |  |  |  |  |  |  |  |  |  |  |
| c1ccc(OCCCN2CCc3ncccc3C2)cc1 [Compound 27] | 90 | 30 | 208 |  |  |  |  |  |  |  |  |  |  |
| c1ccc(CN2CCc3ncccc3C2)cc1 [Compound 31] | 57 | 9 | 262 | 36 | +16 Δ beats/min | -12.0 Δ mmHg | 90 |  |  |  |  |  |  |
| Clc1ccc(CN2CCc3ncccc3C2)cc1 [Compound 33] |  |  |  | 30 | +8 Δ beats/min | -23.5 Δ mmHg | 75 |  |  |  |  |  |  |
| Cc1ccc(CN2CCc3ncccc3C2)cc1 [Compound 34] |  |  |  | 18 | +8 Δ beats/min | -10.0 Δ mmHg | 93 | 518 |  |  |  |  |  |
| CCc1ccc(CN2CCc3ncccc3C2)cc1 [Compound 35] |  |  |  | 27.3 | +8 Δ beats/min | -21.7 Δ mmHg | 56 |  |  |  |  |  |  |
| CC(C)c1cccc(CN2CCc3ncccc3C2)c1 [Compound 36] |  |  |  | 22 | +8 Δ beats/min | -20.0 Δ mmHg | 100 | 368 |  |  |  |  |  |

| Compound | inhibition at 12 mg/kg [1, 7] [%] | Duration of the effect of compounds (nystagmus) [1, 7] [min] | LD50 [2, 8] [mg/kg] | change in vivo at 1 mg/kg [3] [%] | Changes in heart rate when injected intravenously [3] | Changes in systemic blood pressure when injected intravenously [3] | change in vivo at 1 mg [4] [%] | LD50 [2, 9] [mg/kg] | inhibition at 6 mg/kg ([1]; 6 mg/kg injected intravenously) [%] | Duration of the effect of compounds (nystagmus) ([1]; 6 mg/kg injected intravenously) [min] | Sleeping time of the compound treated groups expressed as percentage to that of the control group [5] [%] | Changes in heart rate when injected intravenously [6] | Changes in systemic blood pressure when injected intravenously [6] |
| --- | --- | --- | --- | --- | --- | --- | --- | --- | --- | --- | --- | --- | --- |
| CC(C)c1ccc(CN2CCc3ncccc3C2)cc1 [Compound 37] |  |  |  | 33.3 |  | -13.3 Δ mmHg | 110 | 300 |  |  |  |  |  |
| CC(C)(C)c1ccc(CN2CCc3ncccc3C2)cc1 [Compound 38] |  |  |  | 28.6 |  | -11.7 Δ mmHg | 78 |  |  |  |  |  |  |
| Clc1ccc(CN2CCc3ncccc3C2)cc1Cl [Compound 44] |  |  |  | 30.8 | +32 Δ beats/min | -16.7 Δ mmHg | 107 | 270 |  |  |  |  |  |
| COc1ccc(CN2CCc3ncccc3C2)cc1OC [Compound 46, 5,6,7,8-tetrahydro-6-(3,4-dimethoxybenzyl)-1,6-naphthyridine] |  |  |  | 50 | +32 Δ beats/min | -27.2 Δ mmHg | 99 | 262 |  |  |  |  |  |
| CCCOc1cc(CN2CCc3ncccc3C2)ccc1OC [Compound 49] |  |  |  | 21.2 |  |  | 93 | 174 |  |  |  | +24 Δ beats/min | -11.6 Δ mmHg |
| CCCOc1ccc(CN2CCc3ncccc3C2)cc1OCCC [Compound 50] |  |  |  | 30.6 |  |  | 79 | 200 |  |  |  | +16 Δ beats/min | -10.0 Δ mmHg |
| CCCCOc1ccc(CN2CCc3ncccc3C2)cc1OCCCC [Compound 51] |  |  |  | 16.7 |  |  | 77 |  |  |  |  | 0 Δ beats/min | 0 Δ mmHg |
| c1ccc(CCN2CCc3ncccc3C2)cc1 [Compound 55] | 92 | 5 | 219 |  |  |  |  |  |  |  |  |  |  |
| c1ccc(CCCN2CCc3ncccc3C2)cc1 [Compound 57] | 97 | 10 | 159 |  |  |  |  |  |  |  |  |  |  |
| C(=C\c1ccccc1)/CN1CCc2ncccc2C1 [Compound 58, 5,6,7,8-tetrahydro-6-cinnamyl-1,6-naphthyridine] | 53 | 35 | 263 | 22.2 | +40 Δ beats/min | -13.3 Δ mmHg | 81 |  |  |  |  |  |  |
| Clc1ccccc1C=CCN1CCc2ncccc2C1 [Compound 61] |  |  |  | 29.2 | +24 Δ beats/min | -20.0 Δ mmHg | 84 |  |  |  |  |  |  |
| O=[N+]([O-])c1ccccc1C=CCN1CCc2ncccc2C1 [Compound 67] |  |  |  | 40 | +16 Δ beats/min | -31.7 Δ mmHg | 75 |  |  |  |  |  |  |
| Clc1ccc(C=CCN2CCc3ncccc3C2)c(Cl)c1 [Compound 70] |  |  |  | 60 | +16 Δ beats/min | -11.7 Δ mmHg | 158 | 220 |  |  |  |  |  |
| Clc1ccc(C=CCN2CCc3ncccc3C2)cc1Cl [Compound 71] |  |  |  | 44.4 | +40 Δ beats/min | -38.3 Δ mmHg | 116 | 199 |  |  |  |  |  |
| Cc1ccc(C)c(C=CCN2CCc3ncccc3C2)c1 [Compound 72] |  |  |  | 40 | +48 Δ beats/min | -38.3 Δ mmHg | 92 | 242 |  |  |  |  |  |
| CNCCc1ccccn1 [betahistine, reference compound] | 80 | 8 | 864 | 14.3 |  |  | 90 |  | 55 | 5 |  | +52 Δ beats/min | -100.0 Δ mmHg |
